In patent US9546157B2, “Asymmetric piperidinyl-substituted ureas as medicines” (Helsinn Healthcare SA, priority 2014, dated 2017):

Experiments:
[1] = Metabolic Stability (M = Mouse); assay type: in vitro ADME
[2] = Metabolic Stability (H = Human); assay type: in vitro ADME
GHSR1a [3] = target: T1, GHSR1a (Homo sapiens, UniProt Q92847); experiment: Calcium FLIPR assay, GHSR-1a agonism; assay type: cell-based; design: Emax: unit not given here; details: HEK293/GHSR1a cells
T1 construct: expressed in transfected cells; host or cells: HEK293
T1 sequence (Q92847 whole entry): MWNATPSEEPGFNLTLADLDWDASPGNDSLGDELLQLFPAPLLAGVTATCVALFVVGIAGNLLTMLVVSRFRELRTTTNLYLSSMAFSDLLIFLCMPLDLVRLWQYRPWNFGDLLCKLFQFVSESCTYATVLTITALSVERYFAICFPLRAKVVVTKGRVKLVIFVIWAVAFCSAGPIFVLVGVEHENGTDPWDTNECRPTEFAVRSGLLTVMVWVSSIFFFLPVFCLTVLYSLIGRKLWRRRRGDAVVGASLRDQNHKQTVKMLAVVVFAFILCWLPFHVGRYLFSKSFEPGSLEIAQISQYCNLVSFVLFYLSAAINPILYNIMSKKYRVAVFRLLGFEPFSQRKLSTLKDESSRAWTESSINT
Method in brief: (§1)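 Relative fluorescence read-out (FLIPR) of intracellular calcium in HEK293/GHSR1a cells. For antagonist mode, compound and 10 nM ghrelin were co-added at t=20 sec, and inhibition of the ghrelin response over 2 minutes gave IC50. Agonist mode: compound alone at t=20 sec, response tracked 2 minutes; EC50 from dose-response.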

GHSR1a [4] = target: T1, GHSR1a; experiment: Calcium FLIPR assay, GHSR-1a antagonism (reduction of ghrelin response); assay type: cell-based; details: HEK293/GHSR1a cells, ghrelin 10 nM
Method in brief: as §1

C57BL/6J mice = experiment: Food intake test in mouse (GHSR1a antagonists); assay type: in vivo
Protocol: Male C57BL/6J mice, 18-22 g body weight, were fasted overnight (16 h before compound administration) and placed in a regular light dark cycle (6:00-18:00 light/18:00-6:00 dark). After 1 wk acclimation, animals were sorted into two groups (n=6 each, 2 per cage) based on body weight. Animals in group one were be treated with vehicle and animals in group 2 were treated with the test agent (n=6 for each group). The cumulative food intake was evaluated at 1, 2, 4, 8 and 24 hrs after drug or vehicle treatment. Food intake was measured by subtracting uneaten food from the initial premeasured food.

[5] = Mus musculus, ip, 1 h, i.p. 30 mg/kg
[6] = Mus musculus, ip, 1 h, i.p. 10 mg/kg

Metabolic Stability M [1] | Metabolic Stability H [2] | EC50 (GHSR1a [3]) [µM] | IC50 (GHSR1a [4]) [µM] | SMILES | further results
High H High M | High H High M | > 30 | 0.014 | CC(NC(=O)N(C)C1CCN(C)CC1)c1ccc(-c2cccc(N)c2)c(Cl)c1Cl (stereo not shown) [Compound H0510, 3-(1-(3′-amino-2,3-dichloro-[1,1′-biphenyl]-4-yl)ethyl)-1-methyl-1-(1-methylpiperidin-4-yl)urea] | inhibition in vivo at 30 mg/kg (C57BL/6J mice; Mus musculus, ip, 4 h, i.p. 30 mg/kg): 35%
Medium H Medium M | Medium H Medium M | > 30 | 0.098 | COc1ccc(-c2ccc(C(C)NC(=O)N(C)C3CCN(C)CC3)c(Cl)c2Cl)cn1 (stereo not shown) [Compound H0511, 3-(1-(2,3-dichloro-4-(6-methoxypyridin-3-yl)phenyl)ethyl)-1-methyl-1-(1-methylpiepridin-4-yl)urea] | inhibition in vivo at 30 mg/kg (C57BL/6J mice; [5]): 94%
High H High M | High H High M | 0.003 | 0.009 | Cc1noc(-c2ccc(C(C)NC(=O)N(C)C3CCN(C)CC3)c(Cl)c2Cl)n1 (stereo not shown) [Compound H0596, 3-(1-(2,3-dichloro-4-(3-methyl-1,2,4-oxadiazol-5-yl)phenyl)ethyl)-1-methyl-1-(1-methylpiperidin-4-yl)urea] | Mouse Food Intake, result in words (C57BL/6J mice; i.p. 10 mg/kg): NSE (10 mg/kg)
High H High M | High H High M | > 30 | 0.02 | CC(NC(=O)N(C)C1CCN(C)CC1)c1ccc(-c2cncc(C#N)c2)c(Cl)c1Cl (stereo not shown) [Compound H0613, 3-(1-(2,3-dichloro-4-(5-cyanopyridin-3-yl)phenyl)ethyl)-1-methyl-1-(1-methylpiperidin-4-yl)urea] | Mouse Food Intake, result in words (C57BL/6J mice; IP + ANAM 30 mpk PO, at 1 h): inhibition; Mouse Food Intake, result in words (C57BL/6J mice; PO, dose not given): inhibition at 1 h; Mouse Food Intake, result in words (C57BL/6J mice; i.p. 10 mg/kg): NSE
High H High M | High H High M | > 30 | 0.012 | CC(NC(=O)N(C)C1CCN(C)CC1)c1ccc(-c2cncc(F)c2)c(Cl)c1Cl (stereo not shown) [Compound H0614, 3-(1-(2,3-dichloro-4-(5-fluoropyridin-3-yl)phenyl)ethyl)-1-methyl-1-(1-methylpiperidin-4-yl)urea] | Mouse Food Intake, result in words (C57BL/6J mice; PO, dose not given): No IP done, PO: NSE
High H High M | High H High M | 0.039 | 0.013 | CC(NC(=O)N(C)C1CCN(C)CC1)c1ccc(-c2ncccn2)c(Cl)c1Cl (stereo not shown) [Compound H0619, 3-(1-(2,3-dichloro-4-(pyrimidin-2-yl)phenyl)ethyl)-1-methyl-1-(1-methylpiperidin-4-yl)urea] | inhibition in vivo at 10 mg/kg (C57BL/6J mice; [6]): 34%; inhibition in vivo at 10 mg/kg (C57BL/6J mice; Mus musculus, ip, 2 h, i.p. 10 mg/kg): 34%
High H High M | High H High M | 0.002 | > 30 | CC(NC(=O)N(O)C1CCN(C)CC1)c1ccc(C(F)F)c(Cl)c1Cl (stereo not shown) [Compound H0621, 3-(1-(2,3-dichloro-4-(difluoromethyl)phenyl)ethyl)-1-hydroxy-1-(1-methylpiperidin-4-yl)urea] | Emax (GHSR1a [3]): 3896; Mouse Food Intake, result in words (C57BL/6J mice; i.p., dose not given): No Effect

Second part, the compound before the results:

SMILES | Metabolic Stability M [1] | Metabolic Stability H [2] | EC50 (GHSR1a [3]) [µM] | IC50 (GHSR1a [4]) [µM] | further results
CC(NC(=O)N(C)C1CCN(C)CC1)c1ccc(-c2ccsc2)c(Cl)c1Cl (stereo not shown) [Compound H0498, 3-(1-(2,3-dichloro-4-(thiophen-3-yl)phenyl)ethyl)-1-methyl-1-(1-methylpiperidin-4-yl)urea] | High | Medium | > 30 | 0.029 | inhibition in vivo at 30 mg/kg (C57BL/6J mice; [5]): 76%
CC(NC(=O)N(C)C1CCN(C)CC1)c1ccc(-c2cn[nH]c2)c(Cl)c1Cl (stereo not shown) [Compound H0499, 3-(1-(2,3-dichloro-4-(1H-pyrazol-4-yl)phenyl)ethyl)-1-methyl-1-(1-methylpiperidin-4-yl)urea] | Medium H Medium M | Medium H Medium M | > 30 | 0.012 | Mouse Food Intake, result in words (C57BL/6J mice; i.p. 30 mg/kg): NSE (30 mg/kg)
CC(NC(=O)N(C)C1CCN(C)CC1)c1ccc(-c2ccccc2)c(Cl)c1Cl (stereo not shown) [Compound H0509, 3-(1-(2,3-dichloro-[1,1′-biphenyl]-4-yl)ethyl)-1-methyl-1-(1-methylpiperidin-4-yl)urea] | High H High M | High H High M | 2 | 0.029 | Emax (GHSR1a [3]): 1790; inhibition in vivo at 10 mg/kg (C57BL/6J mice; [6]): 66%
CC(NC(=O)N(C)C1CCN(C)CC1)c1ccc(-c2cncnc2)c(Cl)c1Cl (stereo not shown) [Compound H0516, 3-(1-(2,3-dichloro-4-(pyrimidin-5-yl)phenyl)ethyl)-1-methyl-1-(1-methylpiperidin-4-yl)urea] | High H High M | High H High M | > 30 | 0.041 | inhibition in vivo at 30 mg/kg (C57BL/6J mice; [5]): 88%; Mouse Food Intake, result in words (C57BL/6J mice; PO, dose not given): no effect
CC(NC(=O)N(C)C1CCN(C)CC1)c1ccc(-c2cccs2)c(Cl)c1Cl (stereo not shown) [Compound H0536, 3-(1-(2,3-dichloro-4-(thiophen-2-yl)phenyl)ethyl)-1-methyl-1-(1-methylpiperidin-4-yl)urea] | Medium H Medium M | Medium H Medium M | > 30 | 0.003 | inhibition in vivo at 30 mg/kg (C57BL/6J mice; [5]): 76%
CC(NC(=O)N(Cc1ccc(CO)cc1)C1CCN(C)CC1)c1ccc(-c2cn[nH]c2)c(Cl)c1Cl (stereo not shown) [Compound H0553, 3-(1-(2,3-dichloro-4-(1H-pyrazol-4-yl)phenyl)ethyl)-1-(4-(hydroxymethyl)benzyl)-1-(1-methylpiperidin-4-yl)urea] | Poor | Medium | > 30 | 0.007 | inhibition in vivo at 10 mg/kg (C57BL/6J mice; [6]): 57%
CC(NC(=O)N(C)C1CCN(C)CC1)c1ccc(Br)c2ccccc12 (stereo not shown) [Compound H0573, 3-(1-(4-bromonaphthalen-1-yl)ethyl)-1-methyl-1-(1-methylpiperidin-4-yl)urea] | Medium | High | > 30 | 0.036 | Mouse Food Intake, result in words (C57BL/6J mice; PO 30 mg/kg): PO: NSE (30 mg/kg)
C#Cc1ccc(C(C)NC(=O)N(C)C2CCN(C)CC2)c(Cl)c1Cl (stereo not shown) [Compound H0603, 3-(1-(2,3-dichloro-4-ethynylphenyl)ethyl)-1-methyl-1-(1-methylpiperidin-4-yl)urea] | High H High M | High H High M | > 30 | 0.002 | inhibition in vivo at 10 mg/kg (C57BL/6J mice; [6]): 34%; inhibition in vivo at 0.1 mg/kg (C57BL/6J mice; Mus musculus, ip, 1 h, i.p. 0.1 mpk): 71%; inhibition in vivo at 1 mg/kg (C57BL/6J mice; Mus musculus, ip, 1 h, i.p. 1 mpk): 65%; Mouse Food Intake, result in words (C57BL/6J mice; SC, dose not given): SC NSE; Mouse Food Intake inhibition, activity up to (C57BL/6J mice; i.p. 1 mpk): ≤ 24 h
COc1cncc(-c2ccc(C(C)NC(=O)N(C)C3CCN(C)CC3)c(Cl)c2Cl)c1 (stereo not shown) [Compound H0607, 3-(1-(2,3-dichloro-4-(5-methoxypyridin-3-yl)phenyl)ethyl)-1-methyl-1-(1-methylpiperidin-4-yl)urea] | Medium H Medium M | Medium H Medium M | 0.031 | 0.006 | Emax (GHSR1a [3]): 3000; Mouse Food Intake, result in words (C57BL/6J mice; i.p. 10 mg/kg): NSE (10 mg/kg)
